According to the NIST ThermoML archive (doi:10.1021/je100734t):
Numbers after ± are expanded uncertainties.

Test: xn = mol fraction of the nth substance listed
Details: 101 kPa, Liquid; for speed of sound: Pulse-echo method

CCCCCCCCCCO [decan-1-ol] + Cc1ccccc1C
Details | mass density, 293.15 K [kg/m3] | mass density, 303.15 K [kg/m3] | mass density, 313.15 K [kg/m3] | speed of sound, 293.15 K [m/s] | speed of sound, 303.15 K [m/s] | speed of sound, 313.15 K [m/s]
x2 = 0 | 829.98 ± 0.42 | 823.1 ± 0.44 | 816.27 ± 0.45 | 1396 ± 2 | 1362 ± 2 | 1329 ± 2
x2 = 0.0766 | 832.48 ± 0.42 | 825.52 ± 0.43 | 818.51 ± 0.44 | 1394 ± 2 | 1359 ± 2 | 1325 ± 2
x2 = 0.1331 | 834.38 ± 0.42 | 827.33 ± 0.43 | 820.23 ± 0.44 | 1391 ± 2 | 1356 ± 2 | 1322 ± 2
x2 = 0.1823 | 836.1 ± 0.42 | 828.96 ± 0.43 | 821.79 ± 0.44 | 1389 ± 2 | 1354 ± 2 | 1319 ± 2
x2 = 0.2509 | 838.57 ± 0.41 | 831.31 ± 0.42 | 824.05 ± 0.43 | 1386 ± 2 | 1350 ± 2 | 1315 ± 2
x2 = 0.3173 | 841.06 ± 0.41 | 833.71 ± 0.42 | 826.36 ± 0.43 | 1383 ± 2 | 1347 ± 2 | 1311 ± 2
x2 = 0.3896 | 843.95 ± 0.4 | 836.48 ± 0.42 | 829.02 ± 0.43 | 1379 ± 2 | 1343 ± 2 | 1307 ± 2
x2 = 0.4556 | 846.73 ± 0.4 | 839.16 ± 0.41 | 831.61 ± 0.42 | 1376 ± 2 | 1339 ± 2 | 1303 ± 2
x2 = 0.5261 | 849.91 ± 0.4 | 842.23 ± 0.41 | 834.57 ± 0.42 | 1372 ± 2 | 1335 ± 2 | 1298 ± 2
x2 = 0.6054 | 853.77 ± 0.39 | 845.95 ± 0.4 | 838.18 ± 0.41 | 1369 ± 2 | 1332 ± 2 | 1294 ± 2
x2 = 0.6597 | 856.61 ± 0.39 | 848.71 ± 0.4 | 840.85 ± 0.41 | 1367 ± 2 | 1329 ± 2 | 1292 ± 2
x2 = 0.7364 | 860.94 ± 0.38 | 852.91 ± 0.39 | 844.92 ± 0.4 | 1365 ± 2 | 1327 ± 2 | 1289 ± 2
x2 = 0.8029 | 865.03 ± 0.37 | 856.89 ± 0.39 | 848.8 ± 0.4 | 1364 ± 2 | 1325 ± 2 | 1287 ± 2
x2 = 0.873 | 869.74 ± 0.37 | 861.49 ± 0.38 | 853.27 ± 0.39 | 1364 ± 2 | 1325 ± 2 | 1287 ± 2
x2 = 0.9447 | 875.04 ± 0.36 | 866.72 ± 0.37 | 858.33 ± 0.38 | 1366 ± 2 | 1326 ± 2 | 1287 ± 2

Cc1cccc(C)c1 [1,3-dimethylbenzene] + CCCCCCCCCCO
Details | mass density, 293.15 K [kg/m3] | mass density, 303.15 K [kg/m3] | mass density, 313.15 K [kg/m3] | speed of sound, 293.15 K [m/s] | speed of sound, 303.15 K [m/s] | speed of sound, 313.15 K [m/s]
x1 = 0.0627 | 831.48 ± 0.43 | 824.51 ± 0.44 | 817.53 ± 0.45 | 1392 ± 2 | 1358 ± 2 | 1324 ± 2
x1 = 0.1424 | 833.39 ± 0.43 | 826.27 ± 0.44 | 819.18 ± 0.45 | 1388 ± 2 | 1352 ± 2 | 1318 ± 2
x1 = 0.2052 | 834.93 ± 0.43 | 827.72 ± 0.44 | 820.53 ± 0.45 | 1383 ± 2 | 1347 ± 2 | 1312 ± 2
x1 = 0.2618 | 836.35 ± 0.44 | 829.06 ± 0.45 | 821.78 ± 0.46 | 1379 ± 2 | 1343 ± 2 | 1308 ± 2
x1 = 0.3217 | 837.9 ± 0.44 | 830.53 ± 0.45 | 823.14 ± 0.46 | 1375 ± 2 | 1338 ± 2 | 1302 ± 2
x1 = 0.3934 | 839.84 ± 0.44 | 832.37 ± 0.45 | 824.85 ± 0.46 | 1369 ± 2 | 1332 ± 2 | 1296 ± 2
x1 = 0.4989 | 842.94 ± 0.45 | 835.28 ± 0.46 | 827.6 ± 0.47 | 1361 ± 2 | 1324 ± 2 | 1287 ± 2
x1 = 0.5581 | 844.81 ± 0.45 | 837.05 ± 0.46 | 829.26 ± 0.47 | 1357 ± 2 | 1319 ± 2 | 1282 ± 2
x1 = 0.6343 | 847.44 ± 0.46 | 839.52 ± 0.47 | 831.6 ± 0.48 | 1352 ± 2 | 1313 ± 2 | 1276 ± 2
x1 = 0.7131 | 850.41 ± 0.46 | 842.31 ± 0.47 | 834.24 ± 0.49 | 1348 ± 2 | 1308 ± 2 | 1270 ± 2
x1 = 0.7991 | 853.99 ± 0.47 | 845.71 ± 0.48 | 837.47 ± 0.49 | 1344 ± 2 | 1304 ± 2 | 1265 ± 2
x1 = 0.8465 | 856.11 ± 0.47 | 847.74 ± 0.48 | 839.4 ± 0.5 | 1342 ± 2 | 1302 ± 2 | 1262 ± 2
x1 = 0.8964 | 858.52 ± 0.48 | 850.09 ± 0.49 | 841.61 ± 0.5 | 1341 ± 2 | 1300 ± 2 | 1260 ± 2
x1 = 0.9421 | 860.9 ± 0.48 | 852.38 ± 0.49 | 843.82 ± 0.5 | 1341 ± 2 | 1300 ± 2 | 1259 ± 2
x1 = 1 | 864.18 ± 0.49 | 855.56 ± 0.5 | 846.9 ± 0.51 | 1340 ± 2 | 1300 ± 2 | 1259 ± 2

CCCCCCCCCO [nonan-1-ol] + Cc1ccccc1C
Details | mass density, 293.15 K [kg/m3] | mass density, 303.15 K [kg/m3] | mass density, 313.15 K [kg/m3] | speed of sound, 293.15 K [m/s] | speed of sound, 303.15 K [m/s] | speed of sound, 313.15 K [m/s]
x2 = 0 | 827.7 ± 0.43 | 820.82 ± 0.44 | 813.88 ± 0.45 | 1381 ± 2 | 1347 ± 2 | 1314 ± 2
x2 = 0.0653 | 830.13 ± 0.42 | 823.15 ± 0.44 | 816.1 ± 0.45 | 1380 ± 2 | 1345 ± 2 | 1312 ± 2
x2 = 0.136 | 832.82 ± 0.42 | 825.73 ± 0.43 | 818.58 ± 0.44 | 1378 ± 2 | 1343 ± 2 | 1309 ± 2
x2 = 0.1773 | 834.44 ± 0.42 | 827.29 ± 0.43 | 820.07 ± 0.44 | 1377 ± 2 | 1341 ± 2 | 1307 ± 2
x2 = 0.2281 | 836.48 ± 0.42 | 829.25 ± 0.43 | 821.95 ± 0.44 | 1375 ± 2 | 1339 ± 2 | 1304 ± 2
x2 = 0.2834 | 838.77 ± 0.41 | 831.45 ± 0.42 | 824.06 ± 0.43 | 1373 ± 2 | 1336 ± 2 | 1301 ± 2
x2 = 0.3463 | 841.46 ± 0.41 | 834.04 ± 0.42 | 826.55 ± 0.43 | 1370 ± 2 | 1334 ± 2 | 1298 ± 2
x2 = 0.4203 | 844.78 ± 0.4 | 837.24 ± 0.41 | 829.63 ± 0.43 | 1368 ± 2 | 1330 ± 2 | 1295 ± 2
x2 = 0.4761 | 847.41 ± 0.4 | 839.78 ± 0.41 | 832.07 ± 0.42 | 1366 ± 2 | 1328 ± 2 | 1292 ± 2
x2 = 0.5478 | 850.96 ± 0.39 | 843.21 ± 0.41 | 835.38 ± 0.42 | 1364 ± 2 | 1326 ± 2 | 1289 ± 2
x2 = 0.6327 | 855.43 ± 0.39 | 847.54 ± 0.4 | 839.57 ± 0.41 | 1362 ± 2 | 1323 ± 2 | 1286 ± 2
x2 = 0.7121 | 859.93 ± 0.38 | 851.92 ± 0.39 | 843.83 ± 0.41 | 1361 ± 2 | 1322 ± 2 | 1285 ± 2
x2 = 0.7974 | 865.14 ± 0.37 | 856.99 ± 0.39 | 848.77 ± 0.4 | 1361 ± 2 | 1322 ± 2 | 1284 ± 2
x2 = 0.8695 | 869.88 ± 0.37 | 861.63 ± 0.38 | 853.31 ± 0.39 | 1363 ± 2 | 1322 ± 2 | 1284 ± 2
x2 = 0.9287 | 874.08 ± 0.36 | 865.73 ± 0.37 | 857.34 ± 0.39 | 1365 ± 2 | 1324 ± 2 | 1285 ± 2

CCCCCCCCCCO [decan-1-ol] + CCc1ccccc1
Details | mass density, 293.15 K [kg/m3] | mass density, 303.15 K [kg/m3] | mass density, 313.15 K [kg/m3] | speed of sound, 293.15 K [m/s] | speed of sound, 303.15 K [m/s] | speed of sound, 313.15 K [m/s]
x2 = 0 | 829.98 ± 0.42 | 823.1 ± 0.43 | 816.27 ± 0.43 | 1396 ± 2 | 1362 ± 2 | 1329 ± 2
x2 = 0.0666 | 831.5 ± 0.42 | 824.47 ± 0.43 | 817.46 ± 0.43 | 1391 ± 2 | 1356 ± 2 | 1322 ± 2
x2 = 0.1392 | 833.18 ± 0.42 | 826 ± 0.43 | 818.82 ± 0.43 | 1385 ± 2 | 1350 ± 2 | 1316 ± 2
x2 = 0.1932 | 834.47 ± 0.41 | 827.18 ± 0.42 | 819.88 ± 0.42 | 1381 ± 2 | 1345 ± 2 | 1310 ± 2
x2 = 0.2642 | 836.24 ± 0.41 | 828.8 ± 0.42 | 821.32 ± 0.42 | 1375 ± 2 | 1339 ± 2 | 1304 ± 2
x2 = 0.3355 | 838.11 ± 0.4 | 830.52 ± 0.41 | 822.85 ± 0.41 | 1369 ± 2 | 1333 ± 2 | 1297 ± 2
x2 = 0.3936 | 839.72 ± 0.4 | 832.03 ± 0.41 | 824.21 ± 0.41 | 1364 ± 2 | 1327 ± 2 | 1291 ± 2
x2 = 0.4483 | 841.33 ± 0.4 | 833.52 ± 0.41 | 825.58 ± 0.41 | 1360 ± 2 | 1322 ± 2 | 1286 ± 2
x2 = 0.5238 | 843.73 ± 0.39 | 835.78 ± 0.4 | 827.65 ± 0.4 | 1354 ± 2 | 1316 ± 2 | 1279 ± 2
x2 = 0.598 | 846.33 ± 0.39 | 838.23 ± 0.4 | 829.91 ± 0.4 | 1349 ± 2 | 1310 ± 2 | 1273 ± 2
x2 = 0.6621 | 848.79 ± 0.38 | 840.59 ± 0.39 | 832.13 ± 0.39 | 1344 ± 2 | 1305 ± 2 | 1268 ± 2
x2 = 0.7309 | 851.72 ± 0.38 | 843.4 ± 0.39 | 834.8 ± 0.39 | 1341 ± 2 | 1301 ± 2 | 1263 ± 2
x2 = 0.7953 | 854.7 ± 0.37 | 846.31 ± 0.38 | 837.56 ± 0.38 | 1338 ± 2 | 1298 ± 2 | 1259 ± 2
x2 = 0.8668 | 858.41 ± 0.36 | 849.96 ± 0.37 | 841.06 ± 0.37 | 1336 ± 2 | 1295 ± 2 | 1256 ± 2
x2 = 0.9396 | 862.65 ± 0.36 | 854.3 ± 0.37 | 845.13 ± 0.37 | 1336 ± 2 | 1295 ± 2 | 1255 ± 2
